Each block holds one compound with its values, some of them ahead of it.
Legend:
[1] = Metabolic stability in human liver microsomes assessed as compound remaining after 10 mins; assay type: ADME, Microsome; details: read-out: Stabilty
[2] = Metabolic stability in mouse liver microsomes assessed as compound remaining after 10 mins; assay type: ADME, Microsome; details: read-out: Stabilty
[3] = Apparent permeability across apical to basolateral membrane in human Caco2 cells; assay type: ADME, cell-based; details: Caco-2
[4] = Protein binding in human serum assessed as fraction unbound; assay type: ADME, cell-free; details: read-out: PB
[5] = Protein binding in mouse serum assessed as fraction unbound; assay type: ADME, cell-free; details: read-out: PB
Cytochrome P450 2C8 = biological target: T1, Cytochrome P450 2C8 (Homo sapiens, UniProt P10632); test: Inhibition of CYP2C8 (unknown origin); assay type: ADME
T1 sequence (P10632 whole entry): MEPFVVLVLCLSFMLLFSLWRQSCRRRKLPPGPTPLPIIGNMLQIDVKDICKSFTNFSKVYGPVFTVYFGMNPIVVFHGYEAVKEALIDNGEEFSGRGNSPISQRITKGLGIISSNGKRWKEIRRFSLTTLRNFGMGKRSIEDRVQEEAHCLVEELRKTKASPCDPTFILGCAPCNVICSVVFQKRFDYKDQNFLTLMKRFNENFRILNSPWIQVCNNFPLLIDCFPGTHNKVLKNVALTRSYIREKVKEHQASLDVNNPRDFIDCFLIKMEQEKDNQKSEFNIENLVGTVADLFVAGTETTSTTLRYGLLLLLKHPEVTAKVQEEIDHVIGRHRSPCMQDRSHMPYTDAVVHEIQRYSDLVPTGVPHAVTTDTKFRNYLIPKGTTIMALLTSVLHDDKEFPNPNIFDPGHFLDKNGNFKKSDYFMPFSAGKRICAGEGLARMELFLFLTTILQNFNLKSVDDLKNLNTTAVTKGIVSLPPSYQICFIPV

Cytochrome P450 3A4 = Cytochrome P450 3A4 (Homo sapiens, UniProt P08684); test: Inhibition of CYP3A4 (unknown origin); assay type: ADME
[6] = biological target: T2, Nuclear receptor ROR-gamma (Homo sapiens, UniProt P51449); test: Inverse agonist activity at human Gal4-fused RORgammat expressed in human Jurkat cells luciferase reporter gene assay; assay type: cell-based
T2 sequence (P51449 whole entry): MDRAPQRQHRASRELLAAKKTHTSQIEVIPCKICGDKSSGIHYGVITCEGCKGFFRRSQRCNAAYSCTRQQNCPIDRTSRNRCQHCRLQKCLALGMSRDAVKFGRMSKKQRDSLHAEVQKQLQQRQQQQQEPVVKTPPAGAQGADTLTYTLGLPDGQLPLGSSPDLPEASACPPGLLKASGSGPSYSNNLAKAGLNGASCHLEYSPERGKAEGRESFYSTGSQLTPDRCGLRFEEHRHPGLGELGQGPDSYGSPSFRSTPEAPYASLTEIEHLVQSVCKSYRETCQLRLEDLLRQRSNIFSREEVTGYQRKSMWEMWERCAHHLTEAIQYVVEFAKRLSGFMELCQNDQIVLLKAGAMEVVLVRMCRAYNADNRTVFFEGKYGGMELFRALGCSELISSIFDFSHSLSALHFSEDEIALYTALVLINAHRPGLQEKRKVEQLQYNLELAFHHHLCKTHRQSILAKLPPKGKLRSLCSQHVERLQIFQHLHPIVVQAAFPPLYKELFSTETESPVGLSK

[7] = biological target: T2, Nuclear receptor ROR-gamma; test: Inverse agonist activity at RORgammat in human whole blood assessed as inhibition of anti-CD3/anti-CD28 monoclonal antibodies-stimulated IL-17A production measured by ELISA; assay type: tissue-based
[8] = Efflux ratio of apparent permeability across basolateral to apical side over apical to basolateral side in Caco2 cells; assay type: ADME, cell-based; details: human, Caco-2
Cytochrome P450 2C9 = Cytochrome P450 2C9 (Homo sapiens, UniProt P11712); test: Inhibition of CYP2C9 (unknown origin); assay type: ADME
Cytochrome P450 2C19 = Cytochrome P450 2C19 (Homo sapiens, UniProt P33261); test: Inhibition of CYP2C19 (unknown origin); assay type: ADME
Sequence of Cytochrome P450 2C19 (P33261 whole entry): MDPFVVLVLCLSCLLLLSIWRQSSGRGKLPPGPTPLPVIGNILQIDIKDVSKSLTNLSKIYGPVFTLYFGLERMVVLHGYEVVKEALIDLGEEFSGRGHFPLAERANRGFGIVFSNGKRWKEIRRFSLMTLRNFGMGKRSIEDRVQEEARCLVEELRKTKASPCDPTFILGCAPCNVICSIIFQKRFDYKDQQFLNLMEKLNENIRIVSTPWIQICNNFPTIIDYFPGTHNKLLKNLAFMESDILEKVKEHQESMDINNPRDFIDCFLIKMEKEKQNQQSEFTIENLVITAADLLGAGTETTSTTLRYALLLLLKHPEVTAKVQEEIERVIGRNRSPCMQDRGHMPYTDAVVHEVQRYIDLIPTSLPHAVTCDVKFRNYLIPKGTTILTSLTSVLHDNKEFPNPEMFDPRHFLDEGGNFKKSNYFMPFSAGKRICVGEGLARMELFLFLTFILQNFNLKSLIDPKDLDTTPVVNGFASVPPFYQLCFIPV

Sequence of Cytochrome P450 2C9 (P11712 whole entry): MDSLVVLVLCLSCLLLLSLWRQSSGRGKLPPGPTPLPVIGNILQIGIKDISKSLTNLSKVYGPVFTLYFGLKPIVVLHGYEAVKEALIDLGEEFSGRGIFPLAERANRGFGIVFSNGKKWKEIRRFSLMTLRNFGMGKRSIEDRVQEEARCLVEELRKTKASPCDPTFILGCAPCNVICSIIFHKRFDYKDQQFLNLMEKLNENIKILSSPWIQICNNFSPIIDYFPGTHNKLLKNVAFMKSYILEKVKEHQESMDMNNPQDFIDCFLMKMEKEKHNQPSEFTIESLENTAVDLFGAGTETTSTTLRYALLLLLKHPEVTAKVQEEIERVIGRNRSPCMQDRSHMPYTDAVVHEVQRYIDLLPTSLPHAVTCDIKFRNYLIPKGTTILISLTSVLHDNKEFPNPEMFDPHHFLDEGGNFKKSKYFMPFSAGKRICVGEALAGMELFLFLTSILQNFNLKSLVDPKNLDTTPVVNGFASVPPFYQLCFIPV
Sequence of Cytochrome P450 3A4 (P08684 whole entry, the tested form may be a part): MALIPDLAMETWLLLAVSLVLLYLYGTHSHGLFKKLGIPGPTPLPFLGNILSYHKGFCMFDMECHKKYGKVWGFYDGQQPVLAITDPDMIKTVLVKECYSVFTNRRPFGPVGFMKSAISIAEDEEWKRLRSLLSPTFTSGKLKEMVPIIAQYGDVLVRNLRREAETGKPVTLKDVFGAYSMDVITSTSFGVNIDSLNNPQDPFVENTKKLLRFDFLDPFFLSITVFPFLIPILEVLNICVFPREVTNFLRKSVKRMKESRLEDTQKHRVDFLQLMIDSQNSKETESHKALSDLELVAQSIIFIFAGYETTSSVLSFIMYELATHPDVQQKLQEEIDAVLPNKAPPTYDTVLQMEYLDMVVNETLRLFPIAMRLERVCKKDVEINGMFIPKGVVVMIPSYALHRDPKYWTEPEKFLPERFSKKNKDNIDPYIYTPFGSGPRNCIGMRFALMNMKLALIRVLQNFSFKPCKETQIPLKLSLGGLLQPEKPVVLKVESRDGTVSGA

Structure (SMILES): O=C(C1CCS(=O)(=O)CC1)N1CC[C@@]2(S(=O)(=O)c3ccc(F)cc3)c3ccc(C(F)(C(F)(F)F)C(F)(F)F)cc3CC[C@@H]12
remaining at 10 min [1]: 93% | remaining at 10 min [2]: 100% | Papp A→B [3]: 13 ×10⁻⁶ cm/s | fraction unbound [4]: 0.008 | fraction unbound [5]: 0.068 | IC50 (Cytochrome P450 2C8): 9.4 µM | IC50 (Cytochrome P450 3A4): 13 µM

Structure (SMILES): N#CCCN1C(=O)CC[C@H]1C(=O)N1CC[C@@]2(S(=O)(=O)c3ccc(F)cc3)c3ncc(C(F)(C(F)(F)F)C(F)(F)F)cc3CC[C@@H]12
remaining at 10 min [1]: 83% | remaining at 10 min [2]: 82% | Papp A→B [3]: 9.4 ×10⁻⁶ cm/s | fraction unbound [4]: 0.2 | fraction unbound [5]: 0.16 | IC50 (Cytochrome P450 2C8): > 20 µM | IC50 (Cytochrome P450 3A4): > 20 µM

Structure (SMILES): O=C(N[C@@H]1CC[C@@]2(S(=O)(=O)c3ccc(F)cc3)c3ccc(C(F)(C(F)(F)F)C(F)(F)F)nc3CC[C@@H]12)C1CCS(=O)(=O)CC1
EC50 [6]: 0.0084 µM | EC50 [7]: 0.067 µM | remaining at 10 min [1]: 100% | remaining at 10 min [2]: 82% | Papp A→B [3]: 8.1 ×10⁻⁶ cm/s | efflux ratio [8]: 2.2 | fraction unbound [5]: 0.022 | IC50 (Cytochrome P450 2C8): 16 µM | IC50 (Cytochrome P450 2C9): 9.5 µM | IC50 (Cytochrome P450 2C19): > 20 µM | IC50 (Cytochrome P450 3A4): > 20 µM

Structure (SMILES): N#CCCN1C(=O)CC[C@H]1C(=O)N1CC[C@@]2(S(=O)(=O)c3ccc(F)cc3)c3ccc(C(F)(C(F)(F)F)C(F)(F)F)nc3CC[C@@H]12
EC50 [6]: 0.024 µM | EC50 [7]: 0.031 µM | remaining at 10 min [1]: 100% | remaining at 10 min [2]: 83% | Papp A→B [3]: 19 ×10⁻⁶ cm/s | efflux ratio [8]: 1.7 | fraction unbound [4]: 0.071 | fraction unbound [5]: 0.051 | IC50 (Cytochrome P450 2C8): > 20 µM | IC50 (Cytochrome P450 3A4): 19 µM

Structure (SMILES): C[C@@](O)(CS(C)(=O)=O)C(=O)N[C@@H]1CC[C@@]2(S(=O)(=O)c3ccc(F)cc3)c3ccc(C(F)(C(F)(F)F)C(F)(F)F)cc3CC[C@@H]12
EC50 [6]: 0.0025 µM | EC50 [7]: 0.039 µM | remaining at 10 min [1]: 98% | remaining at 10 min [2]: 84% | Papp A→B [3]: 6.4 ×10⁻⁶ cm/s | efflux ratio [8]: 0.5 | fraction unbound [5]: 0.004 | IC50 (Cytochrome P450 2C8): 5 µM | IC50 (Cytochrome P450 2C9): 12 µM | IC50 (Cytochrome P450 2C19): 15 µM | IC50 (Cytochrome P450 3A4): > 20 µM

Structure (SMILES): N#CCCN1C(=O)CC[C@H]1C(=O)N1CC[C@@]2(S(=O)(=O)c3ccc(F)cc3)c3cnc(C(F)(C(F)(F)F)C(F)(F)F)cc3CC[C@@H]12
remaining at 10 min [1]: 100% | remaining at 10 min [2]: 69% | Papp A→B [3]: 12 ×10⁻⁶ cm/s | fraction unbound [4]: 0.12 | fraction unbound [5]: 0.068 | IC50 (Cytochrome P450 2C8): > 20 µM | IC50 (Cytochrome P450 3A4): 12 µM

Structure (SMILES): O=C(C1CCS(=O)(=O)CC1)N1CC[C@@]2(S(=O)(=O)c3ccc(F)cc3)c3cnc(C(F)(C(F)(F)F)C(F)(F)F)cc3CC[C@@H]12
EC50 [6]: 0.017 µM | EC50 [7]: 0.023 µM | remaining at 10 min [1]: 92% | remaining at 10 min [2]: 49%

Structure (SMILES): C[C@](O)(CS(C)(=O)=O)C(=O)N[C@@H]1CC[C@@]2(S(=O)(=O)c3ccc(F)cc3)c3ccc(C(F)(C(F)(F)F)C(F)(F)F)cc3CC[C@@H]12
EC50 [6]: 0.0055 µM | EC50 [7]: 0.12 µM | remaining at 10 min [1]: 89% | remaining at 10 min [2]: 83% | Papp A→B [3]: 7.6 ×10⁻⁶ cm/s | efflux ratio [8]: 0.9 | fraction unbound [5]: 0.002 | IC50 (Cytochrome P450 2C8): 13 µM | IC50 (Cytochrome P450 2C9): 9.2 µM | IC50 (Cytochrome P450 2C19): 15 µM | IC50 (Cytochrome P450 3A4): > 20 µM

Structure (SMILES): C[C@](O)(CS(C)(=O)=O)C(=O)N[C@@H]1CC[C@@]2(S(=O)(=O)c3ccc(F)cc3)c3ccc(C(F)(C(F)(F)F)C(F)(F)F)nc3CC[C@@H]12
remaining at 10 min [1]: 97% | remaining at 10 min [2]: 100%

Structure (SMILES): O=C(N[C@@H]1CC[C@@]2(S(=O)(=O)c3ccc(F)cc3)c3ccc(C(F)(C(F)(F)F)C(F)(F)F)cc3CC[C@@H]12)C1CCS(=O)(=O)CC1
EC50 [6]: 0.0087 µM | EC50 [7]: 0.05 µM | remaining at 10 min [1]: 100% | remaining at 10 min [2]: 95% | Papp A→B [3]: 7.3 ×10⁻⁶ cm/s | efflux ratio [8]: 0.5 | fraction unbound [5]: 0.003 | IC50 (Cytochrome P450 2C8): 6.5 µM | IC50 (Cytochrome P450 2C9): 5.5 µM | IC50 (Cytochrome P450 2C19): > 20 µM | IC50 (Cytochrome P450 3A4): 5.8 µM

The next lines start with the values.

EC50 [6]: 0.0039 µM | EC50 [7]: 0.067 µM | remaining at 10 min [1]: 100% | remaining at 10 min [2]: 100% | Papp A→B [3]: 18 ×10⁻⁶ cm/s | efflux ratio [8]: 0.5 | fraction unbound [5]: 0.023 | IC50 (Cytochrome P450 2C8): 8.3 µM | IC50 (Cytochrome P450 2C9): 3.2 µM | IC50 (Cytochrome P450 2C19): > 20 µM | IC50 (Cytochrome P450 3A4): > 20 µM
Structure (SMILES): CC(C)(O)C(=O)N[C@@H]1CC[C@@]2(S(=O)(=O)c3ccc(F)cc3)c3ccc(C(F)(C(F)(F)F)C(F)(F)F)nc3CC[C@@H]12

EC50 [6]: 0.071 µM | remaining at 10 min [1]: 100% | remaining at 10 min [2]: 96%
Structure (SMILES): O=C(C1CCS(=O)(=O)CC1)N1CC[C@@]2(S(=O)(=O)c3ccc(F)cc3)c3ncc(C(F)(C(F)(F)F)C(F)(F)F)cc3CC[C@@H]12

remaining at 10 min [1]: 97% | remaining at 10 min [2]: 86% | Papp A→B [3]: 15 ×10⁻⁶ cm/s | fraction unbound [4]: 0.002 | fraction unbound [5]: 0.006 | IC50 (Cytochrome P450 2C8): 12 µM | IC50 (Cytochrome P450 2C9): 12 µM | IC50 (Cytochrome P450 2C19): 7.7 µM | IC50 (Cytochrome P450 3A4): 11 µM
Structure (SMILES): CC(C)(O)CC(=O)N[C@@H]1CC[C@@]2(S(=O)(=O)c3ccc(F)cc3)c3ccc(C(F)(C(F)(F)F)C(F)(F)F)cc3CC[C@@H]12

remaining at 10 min [1]: 92% | remaining at 10 min [2]: 85% | Papp A→B [3]: 17 ×10⁻⁶ cm/s | fraction unbound [4]: 0.018 | fraction unbound [5]: 0.017 | IC50 (Cytochrome P450 2C8): 13 µM | IC50 (Cytochrome P450 3A4): 10 µM
Structure (SMILES): N#CCCN1C(=O)CC[C@H]1C(=O)N1CC[C@@]2(S(=O)(=O)c3ccc(F)cc3)c3ccc(C(F)(C(F)(F)F)C(F)(F)F)cc3CC[C@@H]12

EC50 [6]: 0.006 µM | EC50 [7]: 0.101 µM | remaining at 10 min [1]: 100% | remaining at 10 min [2]: 87% | Papp A→B [3]: 12 ×10⁻⁶ cm/s | efflux ratio [8]: 0.5 | fraction unbound [5]: 0.018 | IC50 (Cytochrome P450 2C8): 6.3 µM | IC50 (Cytochrome P450 2C9): 8.5 µM | IC50 (Cytochrome P450 2C19): 16 µM | IC50 (Cytochrome P450 3A4): 9.1 µM
Structure (SMILES): CC(C)(O)CC(=O)N[C@@H]1CC[C@@]2(S(=O)(=O)c3ccc(F)cc3)c3ccc(C(F)(C(F)(F)F)C(F)(F)F)nc3CC[C@@H]12

remaining at 10 min [1]: 100% | remaining at 10 min [2]: 91% | Papp A→B [3]: 23 ×10⁻⁶ cm/s | fraction unbound [5]: 0.05 | IC50 (Cytochrome P450 2C8): 16 µM | IC50 (Cytochrome P450 3A4): > 20 µM
Structure (SMILES): O=C(C1CCS(=O)(=O)CC1)N1CC[C@@]2(S(=O)(=O)c3ccc(F)cc3)c3ccc(C(F)(C(F)(F)F)C(F)(F)F)nc3CC[C@@H]12

— ChEMBL document CHEMBL4706752 (ACS Med Chem Lett, 2021)
